Entries after “also recorded” stand apart in the source; their conditions may differ. Read-outs that look alike come from different tables or passages of the source.
Key:
Cytotoxic assay (MTT) = type: cell-based, Murine; conditions: mouse, NCTC clone 929 fibroblast cells, NCTC clone 929 cells, highest tested concentration 200 μM
Method: (§1) Murine conjunctive cells (NCTC clone 929, ATCC) and rhesus monkey kidney cells (LLC-MK2, ATCC CCL 7) were maintained in RPMI-1640 supplemented with 10% fetal bovine serum (FBS) at 37 °C in 5% CO2 humidified incubator. Peritoneal macrophages were collected by washing the peritoneal cavity of BALB/c mice with RPMI-1640 medium (Sigma-Aldrich) supplemented with 10% FBS, and were maintained at 37 °C in a 5% CO2 humidified incubator. T. cruzi trypomastigotes (Y strain) were cultivated by continuous in vitro passage in LLC-MK2, in RPMI-1640 supplemented with 2% FBS at 37 °C in 5% CO2 humidified incubator. Antitrypomastigote activity was evaluated in vitro using trypomastigotes obtained from infected LLC-MK2 cell cultures. The motile trypomastigotes, spontaneously released into the supernatant, were collected by centrifugation (2100g for 10 min), washed three times with cold PBS to remove cell debris and culture medium, and finally resuspended in fresh RPMI-1640 medium.
(§2) Cytotoxicity was evaluated in vitro using fibroblast cells (NCTC clone 929) seeded in a 96-well plate (6 × 10^4/well). The compounds were diluted in DMSO (30 mM) and diluted in RPMI-1640 medium without phenol red compounds using serial dilution from 1.56 to–200 μM. The compounds were incubated with the cells for 48 h at 37 °C in 5% CO2 humidified incubator. The MTT assay was used for viability determination. After the final incubation period, 20 μL of MTT (5 mg/mL) was added for 4 h and the plate was kept at 37 °C in 5% CO2 humidified incubator. To solubilize the formazan, 80 μL of SDS (10% v/v) was added and the microplate was incubated for 24 h at 25 °C. The microplate was read at 570 nm in a plate spectrophotometer (Varioskan, Thermo, USA).

[1] = tested on: T. cruzi intracellular amastigotes; assay: Antiamastigote assay in infected peritoneal macrophages (Giemsa, infection index); type: cell-based, Trypanosoma cruzi; conditions: for IC50: 48 h, intracellular amastigotes in BALB/c peritoneal macrophages, tested up to 60 μM, NA = no activity, read-out: IC50 (μM) ± SD Amastigote; for SI (selectivity index): ratio between CC50 in NCTC cells and IC50 in intracellular amastigotes
Method: as §1
Macrophages were seeded in 16-well chamber slides (NUNC Thermo Fisher Scientific, USA) and after 24 h infected with trypomastigotes (1:5, host cell/parasite ratio) for 2 h. Subsequently, infected cells were incubated with increasing concentrations of the compounds (up to 60 μM) for 48 h at 37 °C in 5% CO2 humidified incubator. After treatment, the cells were fixed and stained with Giemsa, and the slides were analyzed under a digital light microscope (EVOS M500, Thermo Fisher Scientific, USA). The infection index was determined by counting 200 macrophages and calculating the percentage of infected cells multiplied by the average number of amastigotes per infected macrophage. Benznidazole was used as a standard reference drug.

T. cruzi = tested on: T. cruzi; parameters: method as in literature; conditions: T. cruzi treated with benznidazole; ref literature; cited from earlier work
[2] = tested on: T. cruzi trypomastigotes (Y strain); assay: Antitrypomastigote assay (resazurin); type: cell-based, Trypanosoma cruzi; conditions: 24 h + 24 h resazurin, tested up to 150 μM, NA = no activity, read-out: IC50 (μM) ± SD Trypomastigote
Method: as §1
Antitrypomastigote activity was evaluated in vitro using trypomastigotes obtained from infected LLC-MK2 cell cultures. Briefly, […] (1 × 10^6 cells/well) were incubated with increasing concentrations of the test compounds (up to 150 μM) in RPMI-1640 medium supplemented with 10% fetal bovine serum, at 37 °C in a humidified atmosphere containing 5% CO2 for 24 h. After incubation, resazurin sodium salt (final concentration 44 μM) was added to each well, and the plates were further incubated for an additional 24 h under the same conditions. Resazurin is a redox-sensitive dye that is reduced by metabolically active parasites to the fluorescent compound resorufin, allowing the quantification of viable parasites.
The conversion of resazurin to resorufin was measured spectrophotometrically by reading the absorbance at 570 nm. The percentage of parasite viability was calculated relative to untreated controls. Benznidazole was used as a standard drug, and wells containing only medium served as negative controls.

[3] = tested on: fibroblast cells (NCTC clone 929); assay: Cytotoxic assay (MTT); type: cell-based, Murine; conditions: NCTC clone 929 cells, 48 h, highest tested concentration 200 μM
Method: as §1, §2

Staphylococcus aureus = tested on: Staphylococcus aureus; parameters: method as in literature; conditions: ref literature; cited from earlier work
Escherichia coli = tested on: Escherichia coli; parameters: method as in literature; conditions: ref literature; cited from earlier work
Candida albicans = tested on: Candida albicans; parameters: method as in literature; conditions: ref literature; cited from earlier work
plants = tested on: plants; parameters: method as in literature; conditions: ref literature; cited from earlier work
Enterococcus faecalis = tested on: Enterococcus faecalis; parameters: method as in literature; conditions: ref literature; cited from earlier work
T. cruzi trypomastigotes [4] = assay: Mitochondrial membrane electric potential (JC-1, flow cytometry); type: cell-based, Trypanosoma cruzi; conditions: 55 μM, 1 and 2 h, JC-1, ratio BL2/BL1
Method: Mitochondrial membrane potential (ΔΨm) was evaluated using the JC-1 fluorescent probe, which accumulates in mitochondria in a potential-dependent manner, forming red-fluorescent aggregates in healthy cells with high ΔΨm and remaining as green-fluorescent monomers in cells with depolarized mitochondrial membranes. Trypomastigotes (2 × 10^6/well) were incubated with Csn-B (6) (55 μM) for 1 and 2 h, at 37 °C in HBSS + Glu. Carbonyl cyanide m-chlorophenyl hydrazone (CCCP) 100 μM was used as a positive control. After this period, parasites were washed in HBSS + Glu and resuspended with JC-1 dye (10 μM) in the dark for 10 min at 37 °C. Parasites were analyzed by flow cytometry (Attune NxT Flow Cytometer; Thermo Fisher Scientific, USA). ,
(§3) 3 Evaluation of mitochondrial membrane electric potential (ΔΨm) and ATP levels. T. cruzi trypomastigotes were incubated for 1 or 2 h with Cytosporone B (6) (55 μM). (A) ΔΨm was investigated with JC-1 dye by flow cytometry and reported as the ratio between the emission channels BL2/BL1. (B) ATP concentration was measured by luciferin/luciferase luminescent kit in a plate reader luminometer. In both analyses, untreated and treated […] with CCCP were used to achieve minimal and maximal depolarization, respectively. A representative experiment is shown. ***p < 0.005 and **p < 0.05.

T. cruzi trypomastigotes [5] = assay: ATP levels (luciferin/luciferase); type: cell-based, Trypanosoma cruzi; conditions: 55 μM, 1 and 2 h
Method: Intracellular ATP levels were measured using the ATP Determination Kit (Molecular Probes, Thermo Fisher Scientific, USA), based on the luciferin–luciferase bioluminescence reaction, in which the emitted light intensity is directly proportional to the ATP concentration present in the sample. Trypomastigotes (2 × 10^6/well) were treated with Csn-B (6) (55 μM) for 1 and 2 h. Carbonyl cyanide m-chlorophenyl hydrazone (CCCP) 100 μM was used as a positive control. After treatment, trypomastigotes were lysed using HBSS + Glu with 0.5% Triton X-100 and mixed with a standard reaction buffer (ATP Determination kit, Molecular Probes, USA) containing DTT (1 mM), luciferin (0.5 mM), and firefly luciferase (1.25 μg/mL). ,
as §3

Nur77 = tested on: Nur77; parameters: method as in PMID 18690216; conditions: cited from earlier work
bacteria = tested on: bacteria; parameters: method as in literature; conditions: ref literature; cited from earlier work
[6] = tested on: human lung fibroblast MRC-5 cells; parameters: method as in PMID 29660469; conditions: cited from earlier work
[7] = Trypanosoma cruzi, Peritoneal macrophage, in Mus musculus

O=C(Cn1ccnc1[N+](=O)[O-])NCc1ccccc1 [Benznidazole, reference compound]
CC50 at 48 h (Cytotoxic assay (MTT)): 191 ± 13.4 µM
IC50 [1, 7]: 5 ± 1.5 µM
SI (selectivity index) [1]: 38.1
mitochondrial membrane potential (T. cruzi): depolarization
respiratory chain (T. cruzi): respiratory chain inhibition
IC50 ([2]; Trypanosoma cruzi): 17.7 ± 1.9 µM

COC(=O)Cc1cc(O)cc(O)c1C(=O)CCCCCC(C)=O [Compound 3, Dothiorelone P]
CC50 [3]: > 200 µM

CCCCCCCC(=O)c1c(O)cc(O)cc1CC(=O)O [Compound 5, Cytosporone A]
CC50 [3]: > 200 µM
antimicrobial activity (Staphylococcus aureus): antimicrobial activity
antimicrobial activity (Escherichia coli): antimicrobial activity
IC50 [1]: 29.9 ± 0.5 µM
antimicrobial activity (Candida albicans): antimicrobial activity
inhibition for germination and growth of plants (plants): inhibition
antimicrobial activity (Enterococcus faecalis): antimicrobial activity

CCCCCCCC(=O)c1c(O)cc(O)cc1CC(=O)OCC [Compound 6, Cytosporone B]
CC50 at 48 h (Cytotoxic assay (MTT)): > 200 µM
antimicrobial activity (Staphylococcus aureus): antimicrobial activity
antimicrobial activity (Escherichia coli): antimicrobial activity
IC50 [1, 7]: < 10 µM
IC50 [1]: 9.1 ± 3.2 µM
SI (selectivity index) [1]: >22.0
antimicrobial activity (Candida albicans): antimicrobial activity
mitochondrial membrane electric potential (ΔΨm) (T. cruzi trypomastigotes [4]): depolarization of the membrane
mitochondrial membrane electric potential (ΔΨm) (T. cruzi trypomastigotes [4]; listed as Csn-B): depolarization of the mitochondrial membrane potential; also recorded: significant depolarization
IC50 ([2]; Trypanosoma cruzi): 36.5 ± 1.9 µM
ATP levels (T. cruzi trypomastigotes [5]): ATP decrease
ATP levels (T. cruzi trypomastigotes [5]; listed as Csn-B): decrease in the ATP levels; also recorded: significant decrease in ATP levels; also recorded: significant reduction in intracellular ATP levels
action on Nur77 nuclear receptor (Nur77): agonist
antibacterial activity (bacteria): potent antibacterial activity
antimicrobial activity (Enterococcus faecalis): antimicrobial activity

C=C1[C@@H](C)[C@H]2[C@H](Cc3ccccc3)NC(=O)[C@]23[C@H](OC(C)=O)/C=C/[C@](C)(O)C[C@@H](C)C/C=C/[C@H]3[C@@H]1O [Compound 7, Cytochalasin H]
CC50 [3]: > 200 µM
IC50 [2]: 47.9 ± 6.3 µM

Dothiorelone A [Compound 1]
CC50 [3]: > 200 µM

Dothiorelone B [Compound 2]
CC50 [3]: > 200 µM

Dothiorelone Q [Compound 4]
CC50 [3]: > 200 µM
IC50 [1]: 43 ± 9 µM
inhibition of TFG-β induced activation of MRC-5 cells [6]: inhibition
